From ChEMBL document CHEMBL1201862, “PubChem BioAssay data set” (2004)
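Compound exposure: 48 hours, 5 concentrations, 96-well plates. GI50 marks 50% less growth.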 Calls of active or inactive are those of the source. No stated cut-off is given here; in the data, active = GI50 up to about 1.1 µM and inactive = higher.

Columns and labels:
Assay in all cases: NCI-60 cell line screen, 48 h
[1] = tested on: UACC-62
[2] = tested on: NCI-H23
[3] = tested on: CAKI-1
[4] = tested on: SF-539
[5] = tested on: CCRF-CEM
[6] = tested on: HOP-92
[7] = tested on: Malme-3M
[8] = tested on: SF-295
[9] = tested on: SNB-75
[10] = tested on: K562
[11] = tested on: SNB-19
[12] = tested on: SK-MEL-2
[13] = tested on: HL-60
[14] = tested on: OVCAR-4

Compound	GI50 [1]	GI50 [2]	GI50 [3]	GI50 [4]	GI50 [5]	GI50 [6]	GI50 [7]	GI50 [8]	GI50 [9]	GI50 [10]	GI50 [11]	GI50 [12]	GI50 [13]	GI50 [14]
CCOC(=O)C1=C(C)N2CCOC2(C)C(C(=O)OC)C1c1cccc(Cl)c1 (stereo not drawn)	88.7 µM (inactive)	> 100 µM (inactive)	> 100 µM (inactive)	> 100 µM (inactive)	> 100 µM (inactive)	31.6 µM (inactive)	> 100 µM (inactive)	> 100 µM (inactive)	> 100 µM (inactive)	81.5 µM (inactive)	> 100 µM (inactive)	> 100 µM (inactive)	56.4 µM (inactive)	–
Cc1ccc(S(=O)(=O)OC(c2ccc(Cl)cc2Cl)C2OC(=O)c3ccccc32)cc1 (stereo not drawn)	53.8 µM (inactive)	> 100 µM (inactive)	–	73.6 µM (inactive)	34.8 µM (inactive)	–	> 100 µM (inactive)	90.2 µM (inactive)	–	33.6 µM (inactive)	42.7 µM (inactive)	73.6 µM (inactive)	21.4 µM (inactive)	47.5 µM (inactive)
CCCn1c(SCC)c2ccccc2c1-c1nc(F)nc(F)n1	–	> 100 µM (inactive)	> 100 µM (inactive)	> 100 µM (inactive)	> 100 µM (inactive)	> 100 µM (inactive)	> 100 µM (inactive)	> 100 µM (inactive)	–	> 100 µM (inactive)	> 100 µM (inactive)	> 100 µM (inactive)	> 100 µM (inactive)	> 100 µM (inactive)
CC(=O)OCC(=O)[C@@]12OC(C)(C)O[C@@H]1C[C@H]1[C@@H]3CC(C=O)=C4C=C(OCCCl)CC[C@]4(C)[C@@]3(F)[C@@H](O)C[C@@]12C [FORMOCORTAL]	> 100 µM (inactive)	15.8 µM (inactive)	–	17.6 µM (inactive)	0.486 µM (active)	20.9 µM (inactive)	23.6 µM (inactive)	5.42 µM (inactive)	–	4.74 µM (inactive)	30.2 µM (inactive)	20.7 µM (inactive)	15.9 µM (inactive)	19.9 µM (inactive)
CCN1C(=O)N(C)C(O)c2c1nc1ccccn1c2=O (stereo not drawn)	0.103 µM (active)	24.9 µM (inactive)	–	24.6 µM (inactive)	27.8 µM (inactive)	25.6 µM (inactive)	38.6 µM (inactive)	28 µM (inactive)	20.6 µM (inactive)	34 µM (inactive)	39.4 µM (inactive)	22.2 µM (inactive)	24.9 µM (inactive)	33 µM (inactive)
N/C(=N\O)N/N=C/c1cccc(F)c1	16.8 µM (inactive)	39 µM (inactive)	27.7 µM (inactive)	28.9 µM (inactive)	23.8 µM (inactive)	42.9 µM (inactive)	37.3 µM (inactive)	37.8 µM (inactive)	52.6 µM (inactive)	19.4 µM (inactive)	> 100 µM (inactive)	67.8 µM (inactive)	25.5 µM (inactive)	85.9 µM (inactive)
O=C1CC(c2c(-c3ccccc3)[nH]c3ccccc23)C(=O)N1c1ccccc1 (stereo not drawn)	54.2 µM (inactive)	78.7 µM (inactive)	59.4 µM (inactive)	> 100 µM (inactive)	63.7 µM (inactive)	–	> 100 µM (inactive)	13.5 µM (inactive)	> 100 µM (inactive)	57.1 µM (inactive)	–	> 100 µM (inactive)	44.6 µM (inactive)	68.9 µM (inactive)
O=C1C2C3C=C4c5ccccc5N(c5ccccc5)C4(C2C(=O)N1c1ccccc1)C1C(=O)N(c2ccccc2)C(=O)C31 (stereo not drawn)	3.61 µM (inactive)	> 100 µM (inactive)	> 100 µM (inactive)	–	8.81 µM (inactive)	2.4 µM (inactive)	7.67 µM (inactive)	> 100 µM (inactive)	65.8 µM (inactive)	> 100 µM (inactive)	> 100 µM (inactive)	> 100 µM (inactive)	> 100 µM (inactive)	–
COC1(OC)CC2OC1C1N=NN(C(=O)OC(C)(C)C)C21 (stereo not drawn)	> 100 µM (inactive)	> 100 µM (inactive)	> 100 µM (inactive)	> 100 µM (inactive)	21.1 µM (inactive)	> 100 µM (inactive)	> 100 µM (inactive)	> 100 µM (inactive)	> 100 µM (inactive)	36 µM (inactive)	–	> 100 µM (inactive)	24.3 µM (inactive)	> 100 µM (inactive)
COc1ccc2c(c1OC)C(C=C(c1ccccc1)c1ccccc1)CN(C)C2 (stereo not drawn)	17.3 µM (inactive)	22.4 µM (inactive)	14.2 µM (inactive)	21.9 µM (inactive)	21.3 µM (inactive)	14.2 µM (inactive)	20.2 µM (inactive)	16.2 µM (inactive)	34.3 µM (inactive)	6.21 µM (inactive)	29.9 µM (inactive)	–	–	41.4 µM (inactive)
CC(=O)OCCOCn1c2ccccc2c2c3c(c4c5ccccc5n(COCCOC(C)=O)c4c21)C(=O)N(Cc1ccccc1)C3=O	> 100 µM (inactive)	> 100 µM (inactive)	–	> 100 µM (inactive)	> 100 µM (inactive)	55.5 µM (inactive)	> 100 µM (inactive)	–	76.7 µM (inactive)	> 100 µM (inactive)	> 100 µM (inactive)	> 100 µM (inactive)	> 100 µM (inactive)	> 100 µM (inactive)
Cc1ccc(SSCCCCS(=O)O)cc1	15.3 µM (inactive)	17.9 µM (inactive)	18.9 µM (inactive)	15 µM (inactive)	5.74 µM (inactive)	–	19.2 µM (inactive)	26.4 µM (inactive)	14.1 µM (inactive)	24.3 µM (inactive)	34.7 µM (inactive)	25.1 µM (inactive)	3.89 µM (inactive)	15.8 µM (inactive)
Cc1cn(C2C=CC(=O)C(C)O2)c(=O)[nH]c1=O (stereo not drawn)	15.7 µM (inactive)	18.1 µM (inactive)	16.7 µM (inactive)	18.7 µM (inactive)	6.07 µM (inactive)	15.9 µM (inactive)	13.2 µM (inactive)	17.5 µM (inactive)	15.5 µM (inactive)	10.6 µM (inactive)	21 µM (inactive)	–	14.7 µM (inactive)	–
NNC(=O)/C(=C/c1cccc([N+](=O)[O-])c1)NC(=O)c1ccccc1	–	> 100 µM (inactive)	> 100 µM (inactive)	> 100 µM (inactive)	> 100 µM (inactive)	> 100 µM (inactive)	> 100 µM (inactive)	> 100 µM (inactive)	> 100 µM (inactive)	> 100 µM (inactive)	> 100 µM (inactive)	> 100 µM (inactive)	> 100 µM (inactive)	> 100 µM (inactive)
Nc1nc(O)c2nc(N)n(Cc3ccccc3)c2n1	> 100 µM (inactive)	> 100 µM (inactive)	> 100 µM (inactive)	–	> 100 µM (inactive)	> 100 µM (inactive)	> 100 µM (inactive)	> 100 µM (inactive)	> 100 µM (inactive)	> 100 µM (inactive)	> 100 µM (inactive)	> 100 µM (inactive)	> 100 µM (inactive)	> 100 µM (inactive)
CCOC(=O)C1=C(C)N(NC(=O)Nc2ccccc2)C2(N)N(NC(=O)Nc3ccccc3)C(C)=C(C(=O)OCC)C12C(=O)OCC (stereo not drawn)	49.3 µM (inactive)	64 µM (inactive)	–	22.1 µM (inactive)	–	18.8 µM (inactive)	33 µM (inactive)	47.8 µM (inactive)	25.9 µM (inactive)	> 100 µM (inactive)	38.9 µM (inactive)	52.7 µM (inactive)	35.2 µM (inactive)	29.5 µM (inactive)
[N-]=[N+]=NC1(Cc2ccccc2)C(=O)c2cccc3c2N(CCC3)C1=O (stereo not drawn)	> 100 µM (inactive)	> 100 µM (inactive)	> 100 µM (inactive)	> 100 µM (inactive)	> 100 µM (inactive)	> 100 µM (inactive)	> 100 µM (inactive)	> 100 µM (inactive)	> 100 µM (inactive)	> 100 µM (inactive)	–	> 100 µM (inactive)	> 100 µM (inactive)	> 100 µM (inactive)
Cc1ccc(-c2cc(-c3ccccc3)c(C#N)c(=O)[nH]2)cc1	> 100 µM (inactive)	> 100 µM (inactive)	–	> 100 µM (inactive)	> 100 µM (inactive)	56.9 µM (inactive)	> 100 µM (inactive)	> 100 µM (inactive)	53.2 µM (inactive)	> 100 µM (inactive)	> 100 µM (inactive)	–	> 100 µM (inactive)	79.1 µM (inactive)
O=C(O)C[C@H]1CCCCC12CCOC2=O (stereo partly drawn)	> 100 µM (inactive)	> 100 µM (inactive)	> 100 µM (inactive)	> 100 µM (inactive)	> 100 µM (inactive)	> 100 µM (inactive)	–	> 100 µM (inactive)	> 100 µM (inactive)	> 100 µM (inactive)	> 100 µM (inactive)	87.5 µM (inactive)	> 100 µM (inactive)	> 100 µM (inactive)
CCOC(=O)/C(C#N)=C(O)/C(=C/c1ccccc1Cl)NC(=O)c1ccccc1	> 100 µM (inactive)	> 100 µM (inactive)	> 100 µM (inactive)	> 100 µM (inactive)	> 100 µM (inactive)	> 100 µM (inactive)	> 100 µM (inactive)	> 100 µM (inactive)	> 100 µM (inactive)	88.1 µM (inactive)	> 100 µM (inactive)	–	> 100 µM (inactive)	> 100 µM (inactive)
Cc1cc2c(cc1C)[n+]([O-])c(C(=O)C/C(=N/OCCCc1ccccc1)C(=O)Nc1cc(Cl)ccc1Cl)c(C)[n+]2[O-]	> 100 µM (inactive)	> 100 µM (inactive)	> 100 µM (inactive)	> 100 µM (inactive)	33.3 µM (inactive)	–	> 100 µM (inactive)	> 100 µM (inactive)	> 100 µM (inactive)	> 100 µM (inactive)	> 100 µM (inactive)	0.0562 µM (active)	> 100 µM (inactive)	> 100 µM (inactive)
